We go through one substance from patent publication US7273845B2, “Polymeric prodrugs of vancomycin” (priority 2002, dated 2007).

One may read the Cmax as the highest concentration seen after dosing. As usually defined, the AUC is concentration integrated over time. By Vss is commonly meant the apparent volume that relates the amount in the body to the concentration in plasma or blood.

Series [1] deals with Staphylococcus aureus (Smith). Nature of the series: LD90-100 examination, compound given after S. aureus (Smith) challenge, survival. The series is classed as in vivo, ICR Swiss mice. To be noted: 100 mg/kg vancomycin equivalents in two equal split doses 1 and 2.5 h following LD90-100 S. aureus (Smith) inoculation; survival after 1 week. On the procedure:
Studies examining the in vivo anti-infective potential of PEG-vancomycin conjugates in ICR Swiss mice were performed. […] As controls, S. aureus (Smith) challenged mice were administered either saline or 100 mg/kg vancomycingiven in equal split doses. Ten mice were used per compound tested.

A further series concerns S. aureus (Smith). Nature of the series: Sustained anti-infective protection, compound given before LD90-100 S. aureus (Smith) challenge, survival. The series is classed as in vivo, ICR Swiss mice. On the procedure:
A second study was also performed to examine the sustained anti-infective protection of PEG-vancomycin conjugate 22. ICR Swiss mice were administered with either 100 mg/kg vancomycin equivalents of 22, 100 mg/kg vancomycin, or saline in two equally split doses 1½ hours apart. Ten mice per treatment group were used.

Another series has as its system E.coli (25922). Nature of the series: Minimum Inhibitory Concentration (MIC), E.coli (25922). The format is cell-based. To be noted: vancomycin equivalents.
The next series has as its system E. faecalis (29212). Nature of the series: Minimum Inhibitory Concentration (MIC), E. faecalis (29212). The format is cell-based. To be noted: vancomycin equivalents.
The next series has as its system S. aureus (29214). Nature of the series: Minimum Inhibitory Concentration (MIC), S. aureus (29214). The series is classed as cell-based. To be noted: vancomycin equivalents.
A further series relates to S. aureus (6538P). Nature of the series: Minimum Inhibitory Concentration (MIC), S. aureus (6538P). The series is classed as cell-based. To be noted: vancomycin equivalents.
Series [2] is described as follows: Circulatory pharmacokinetics after single intravenous dose in rats. The settings on record: for Vss: 50 mg/kg. The protocol:
PEG-vancomycin conjugates containing a 50 mg/kg vancomycin equivalent dose and 50 mg/kg native vancomycin (1) were injected as a single intravenous dose into the tail vein of conscious rats at a rate of 0.5 ml/min [˜2.5 min]. […] A 250 μL bled was done on rats sedated with 30% O2/70% CO2 via the retro-orbital plexus into EDTA containing vials. Blood was immediately processed for plasma and frozen on dry ice. Plasma samples were stored at −80° C. until analyzed. The plasma samples were analyzed by a fluorescence polarization immunoassay using an Abbott Laboratories TDx analyzer within two hours of thawing. A single compartment model using WinNonlin™ software was used to determine the-plasma pharmacokinetic parameters.

Setting [3] is: 50 mg/kg vancomycin equivalents i.v.
Setting [4] is: intravenous bolus 50 mg/kg vancomycin equivalents, plasma.

For the substance vancomycin [Compound 1], the “Post Challenge % Survival (mice)” value in series [1] amounted to 100%. In addition, the “anti-microbial protection against later S. aureus challenge (in words)” value in the series with S. aureus (Smith) (100 mg/kg vancomycin equivalents given before challenge, ICR Swiss mice) is listed as “no protection”. For the same substance, the “Pre-Challenge % Survival (mice)” value in the series on S. aureus (Smith) (100 mg/kg vancomycin equivalents in two split doses 1½ h apart, given prior to LD90-100 S. aureus (Smith) challenge, survival after 1 week) is 0%. The “MIC E.coli (25922)” value in the series on E.coli (25922) was more than 100 µg/mL. For the same substance, in the series on E. faecalis (29212), the “MIC E. faecalis (29212)” value stood at 6.2 µg/mL. Further, the “MIC S. aureus (29214)” value with S. aureus (29214) worked out at 3.1 µg/mL. Moreover, the “MIC S. aureus (6538P)” value in the series on S. aureus (6538P) came to 1.6 µg/mL. Moreover, in series [2] (setting [3]), the Cmax is 162 µg/mL, the “area under the curve (AUC)” value came out at 78800 ng·h/mL, the “circulatory half-life (t1/2)” value is 20.4 min and the “clearance (CL)” value was found to be 10.7 mL/min/kg. In addition, in series [2] (setting [4]), the AUC was determined as 78800 ± 10800 ng·h/mL, the CL is 10.7 ± 1.4 mL/min/kg, the Cmax was found to be 162.0 ± 9.0 µg/mL and the “Plasma Half-life” value stood at 20.4 ± 2.4 min. Besides, the Vss in series [2] (setting [4]) is 0.3093 ± 0.0172 L/kg. Moreover, the Vss in series [2] (intravenous bolus 50 mg/kg vancomycin equivalents, plasma, listed as Vancomycin) was found to be 0.309 L/kg.
